From patent US10894798B2, “Substituted dihydropyrrolopyrazole derivative” (UBE INDUSTRIES, LTD., priority 2015, dated 2021)

Columns and labels:
Format in all cases: biochemical
CDK7 = biological target: T1, CDK7 (Homo sapiens, UniProt P50613); assay: CDK7 enzyme inhibition test; conditions: [γ-33P]ATP, MBP substrate, 60 min preincubation at 25°C; Ki=IC50/(1+S/Km); read-out: Ki value of CDK7 inhibitory activity
T1 construct: purchased Carna Biosciences, Inc. 04-108
Procedure, shortened: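 Commercial human CDK7 with myelin basic protein substrate in HEPES pH 7.4 buffer with DTT, Triton X-100, MgCl2; compound preincubated 60 min at 25° C, then reaction run 20 min at 30° C after adding [γ-^33P]ATP (500 μM solution). TCA-precipitated ^33P-MBP counted by scintillation; IC50 converted to Ki via Ki=IC50/(1+S/Km).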

CDK2 = biological target: T2, CDK2 (Homo sapiens, UniProt P24941); assay: CDK2 enzyme inhibition test; conditions: [γ-33P]ATP, MBP substrate; Ki=IC50/(1+S/Km); read-out: Ki value of CDK2 inhibitory activity
T2 construct: purchased Invitrogen Corp. PV3267
Procedure, shortened: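 Commercial CDK2 phosphorylated MBP with [γ-33P]ATP (500 μM solution before mixing) in HEPES pH 7.4 buffer with DTT, Triton X-100 and MgCl2 for 20 min at 30 °C. TCA-precipitated 33P-MBP was counted by scintillation to give the IC50. Ki = IC50/(1+S/Km), with S the ATP concentration in the reaction.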

PLK1 = biological target: T3, PLK1 (Homo sapiens, UniProt P53350); assay: PLK1 enzyme (polo-like kinase) inhibition test; conditions: [γ-33P]ATP, casein substrate; Ki=IC50/(1+S/Km); read-out: Ki value of PLK1 inhibitory activity
T3 construct: purchased Carna Biosciences, Inc. 05-157
T3 sequence (P53350 whole entry): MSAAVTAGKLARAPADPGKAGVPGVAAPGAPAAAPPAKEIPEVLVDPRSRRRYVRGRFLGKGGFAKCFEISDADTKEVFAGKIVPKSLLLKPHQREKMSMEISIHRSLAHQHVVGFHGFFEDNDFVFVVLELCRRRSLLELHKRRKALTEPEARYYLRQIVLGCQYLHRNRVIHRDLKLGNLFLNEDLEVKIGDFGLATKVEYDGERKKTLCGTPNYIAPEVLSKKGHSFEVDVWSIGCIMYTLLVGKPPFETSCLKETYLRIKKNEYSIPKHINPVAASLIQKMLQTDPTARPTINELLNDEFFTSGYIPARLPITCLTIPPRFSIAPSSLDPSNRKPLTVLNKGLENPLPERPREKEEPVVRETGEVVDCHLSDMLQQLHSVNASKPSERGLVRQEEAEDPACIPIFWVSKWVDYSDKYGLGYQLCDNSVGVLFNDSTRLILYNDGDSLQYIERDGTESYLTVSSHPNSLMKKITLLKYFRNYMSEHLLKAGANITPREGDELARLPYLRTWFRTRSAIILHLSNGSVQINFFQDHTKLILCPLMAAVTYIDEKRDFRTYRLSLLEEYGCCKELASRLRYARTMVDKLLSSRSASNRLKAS
Procedure, shortened: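 Recombinant PLK1 phosphorylates casein with [γ-^33P]ATP in MOPS buffer (pH 7.0) containing DTT and magnesium acetate, 20 min at 30° C. Reaction stopped with TCA; washed precipitate counted by liquid scintillation. IC50 for inhibition of ^33P incorporation into casein, converted to Ki via Ki=IC50/(1+S/Km).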

T1 sequence (P50613 whole entry): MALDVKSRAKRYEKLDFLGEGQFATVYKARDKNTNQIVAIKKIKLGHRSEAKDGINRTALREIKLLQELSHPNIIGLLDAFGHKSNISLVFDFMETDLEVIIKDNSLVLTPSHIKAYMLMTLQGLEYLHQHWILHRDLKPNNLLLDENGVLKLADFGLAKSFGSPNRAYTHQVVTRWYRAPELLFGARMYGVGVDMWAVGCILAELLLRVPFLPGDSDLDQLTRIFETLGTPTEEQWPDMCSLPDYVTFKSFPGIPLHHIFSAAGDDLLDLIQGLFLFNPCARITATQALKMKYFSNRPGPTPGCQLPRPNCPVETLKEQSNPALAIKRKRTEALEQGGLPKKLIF
T1 sequence (P51946 whole entry partner): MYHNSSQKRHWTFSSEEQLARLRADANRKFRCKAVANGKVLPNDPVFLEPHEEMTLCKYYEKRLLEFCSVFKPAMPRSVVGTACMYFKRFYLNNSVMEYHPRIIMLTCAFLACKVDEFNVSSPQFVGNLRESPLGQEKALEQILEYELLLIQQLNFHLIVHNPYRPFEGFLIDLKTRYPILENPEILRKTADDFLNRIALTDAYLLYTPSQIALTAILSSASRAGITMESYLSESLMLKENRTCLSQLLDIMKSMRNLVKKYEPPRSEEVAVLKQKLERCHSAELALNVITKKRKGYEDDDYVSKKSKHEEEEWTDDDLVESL
T1 sequence (P51948 whole entry partner): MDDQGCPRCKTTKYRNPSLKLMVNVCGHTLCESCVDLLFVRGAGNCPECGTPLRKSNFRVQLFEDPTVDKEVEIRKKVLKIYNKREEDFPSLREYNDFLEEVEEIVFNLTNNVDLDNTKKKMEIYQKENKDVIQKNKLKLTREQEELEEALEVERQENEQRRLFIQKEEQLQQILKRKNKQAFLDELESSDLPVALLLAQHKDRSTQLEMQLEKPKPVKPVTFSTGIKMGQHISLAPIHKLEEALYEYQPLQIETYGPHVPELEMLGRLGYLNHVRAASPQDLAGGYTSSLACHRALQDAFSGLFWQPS

## CC1(C)c2[nH]nc(NC(=O)C3([Si](C)(C)C)CCC3)c2CN1C(=O)Nc1ccccc1F [IV-3, N-(2-Fluorophenyl)-6,6-dimethyl-3-[1-(trimethylsilyl)cyclobutanecarboxamido]-4,6-dihydropyrrolo[3,4-c]pyrazole-5(1H)-carboxamide]
CDK7
  Ki: ≤ 0.05 µM
CDK2
  Ki: ≥ 1 µM
PLK1
  Ki: ≥ 5 µM

## CC1(C)c2[nH]nc(NC(=O)C3([Si](C)(C)C)CCC3)c2CN1C(=O)Nc1ccccc1Br [IV-15, N-(2-Bromophenyl)-6,6-dimethyl-3-[1-(trimethylsilyl)cyclobutanecarboxamido]-4,6-dihydropyrrolo[3,4-c]pyrazole-5(1H)-carboxamide]
CDK7
  Ki: ≤ 0.05 µM
CDK2
  Ki: ≥ 1 µM
PLK1
  Ki: ≥ 5 µM

## Cc1ccccc1NC(=O)N1Cc2c(NC(=O)C3([Si](C)(C)C)CCC3)n[nH]c2C1(C)C [IV-21, 6,6-Dimethyl-N-(o-tolyl)-3-[1-(trimethylsilyl)cyclobutanecarboxamido]-4,6-dihydropyrrolo[3,4-c]pyrazole-5(1H)-carboxamide]
CDK7
  Ki: ≤ 0.05 µM
CDK2
  Ki: ≥ 1 µM
PLK1
  Ki: ≥ 5 µM

## CC1(C)c2[nH]nc(NC(=O)C3([Si](C)(C)C)CCC3)c2CN1C(=O)Nc1c(F)cccc1Cl [IV-113, N-(2-Chloro-6-fluorophenyl)-6,6-dimethyl-3-[1-(trimethylsilyl)cyclobutanecarboxamido]-4,6-dihydropyrrolo[3,4-c]pyrazole-5(1H)-carboxamide]
CDK7
  Ki: ≤ 0.05 µM
CDK2
  Ki: ≥ 1 µM
PLK1
  Ki: ≥ 5 µM

## Cc1ccc(F)c(NC(=O)N2Cc3c(NC(=O)C4([Si](C)(C)C)CCC4)n[nH]c3C2(C)C)c1 [IV-127, N-(2-Fluoro-5-methylphenyl)-6,6-dimethyl-3-[1-(trimethylsilyl)cyclobutanecarboxamido]-4,6-dihydropyrrolo[3,4-c]pyrazole-5 (1H)-carboxamide]
CDK7
  Ki: ≤ 0.05 µM
CDK2
  Ki: ≥ 1 µM
PLK1
  Ki: ≥ 5 µM

## Cc1cccc(F)c1NC(=O)N1Cc2c(NC(=O)C3([Si](C)(C)C)CCC3)n[nH]c2C1(C)C [IV-129, N-(2-Fluoro-6-methylphenyl)-6,6-dimethyl-3-[1-(trimethylsilyl)cyclobutanecarboxamido]-4,6-dihydropyrrolo[3,4-c]pyrazole-5 (1H)-carboxamide]
CDK7
  Ki: ≤ 0.05 µM
CDK2
  Ki: ≥ 1 µM
PLK1
  Ki: ≥ 5 µM

## CCc1cccc(F)c1NC(=O)N1Cc2c(NC(=O)C3([Si](C)(C)C)CCC3)n[nH]c2C1(C)C [IV-137, N-(2-Ethyl-6-fluorophenyl)-6,6-dimethyl-3-[1-(trimethylsilyl)cyclobutanecarboxamido]-4,6-dihydropyrrolo[3,4-c]pyrazole-5(1H)-carboxamide]
CDK7
  Ki: ≤ 0.05 µM
CDK2
  Ki: ≥ 1 µM
PLK1
  Ki: ≥ 5 µM

## COc1cccc(F)c1NC(=O)N1Cc2c(NC(=O)C3([Si](C)(C)C)CCC3)n[nH]c2C1(C)C [IV-161, N-(2-Fluoro-6-methoxyphenyl)-6,6-dimethyl-3-[1-(trimethylsilyl)cyclobutanecarboxamido]-4,6-dihydropyrrolo[3,4-c]pyrazole-5(1H)-carboxamide]
CDK7
  Ki: ≤ 0.05 µM
CDK2
  Ki: ≥ 1 µM
PLK1
  Ki: ≥ 5 µM

## CC1(C)c2[nH]nc(NC(=O)C3([Si](C)(C)C)CCC3)c2CN1C(=O)Nc1c(F)cccc1OC(F)F [IV-169, N-[2-(Difluoromethoxy)-6-fluorophenyl]-6,6-dimethyl-3-[1-(trimethylsilyl)cyclobutanecarboxamido]-4,6-dihydropyrrolo[3,4-c]pyrazole-5(1H)-carboxamide]
CDK7
  Ki: ≤ 0.05 µM
CDK2
  Ki: ≥ 1 µM
PLK1
  Ki: ≥ 5 µM

## CC1(C)c2[nH]nc(NC(=O)C3([Si](C)(C)C)CCC3)c2CN1C(=O)Nc1c(Cl)cccc1Cl [IV-199, N-(2,6-Dichlorophenyl)-6,6-dimethyl-3-[1-(trimethylsilyl)cyclobutanecarboxamido]-4,6-dihydropyrrolo[3,4-c]pyrazole-5(1H)-carboxamide]
CDK7
  Ki: ≤ 0.05 µM
CDK2
  Ki: ≥ 1 µM
PLK1
  Ki: ≥ 5 µM

## Cc1cccc(Cl)c1NC(=O)N1Cc2c(NC(=O)C3([Si](C)(C)C)CCC3)n[nH]c2C1(C)C [IV-215, N-(2-Chloro-6-methylphenyl)-6,6-dimethyl-3-[1-(trimethylsilyl)cyclobutanecarboxamido]-4,6-dihydropyrrolo[3,4-c]pyrazole-5 (1H)-carboxamide]
CDK7
  Ki: ≤ 0.05 µM
CDK2
  Ki: ≥ 1 µM
PLK1
  Ki: ≥ 5 µM

## COc1cccc(Cl)c1NC(=O)N1Cc2c(NC(=O)C3([Si](C)(C)C)CCC3)n[nH]c2C1(C)C [IV-247, N-(2-Chloro-6-methoxyphenyl)-6,6-dimethyl-3-[1-(trimethylsilyl)cyclobutanecarboxamido]-4,6-dihydropyrrolo[3,4-c]pyrazole-5(1H)-carboxamide]
CDK7
  Ki: ≤ 0.05 µM
CDK2
  Ki: ≥ 1 µM
PLK1
  Ki: ≥ 5 µM

## Cc1cccc(Br)c1NC(=O)N1Cc2c(NC(=O)C3([Si](C)(C)C)CCC3)n[nH]c2C1(C)C [IV-299, N-(2-Bromo-6-methylphenyl)-6,6-dimethyl-3-[1-(trimethylsilyl)cyclobutanecarboxamido]-4,6-dihydropyrrolo[3,4-c]pyrazole-5 (1H)-carboxamide]
CDK7
  Ki: ≤ 0.05 µM
CDK2
  Ki: ≥ 1 µM
PLK1
  Ki: ≥ 5 µM

## Cc1cc(F)ccc1NC(=O)N1Cc2c(NC(=O)C3([Si](C)(C)C)CCC3)n[nH]c2C1(C)C [IV-359, N-(4-Fluoro-2-methylphenyl)-6,6-dimethyl-3-[1-(trimethylsilyl)cyclobutanecarboxamido]-4,6-dihydropyrrolo[3,4-c]pyrazole-5 (1H)-carboxamide]
CDK7
  Ki: ≤ 0.05 µM
CDK2
  Ki: ≥ 1 µM
PLK1
  Ki: ≥ 5 µM

## Cc1ccc(F)cc1NC(=O)N1Cc2c(NC(=O)C3([Si](C)(C)C)CCC3)n[nH]c2C1(C)C [IV-361, N-(5-Fluoro-2-methylphenyl)-6,6-dimethyl-3-[1-(trimethylsilyl)cyclobutanecarboxamido]-4,6-dihydropyrrolo[3,4-c]pyrazole-5 (1H)-carboxamide]
CDK7
  Ki: ≤ 0.05 µM
CDK2
  Ki: ≥ 1 µM
PLK1
  Ki: ≥ 5 µM

## Cc1ccc(C)c(NC(=O)N2Cc3c(NC(=O)C4([Si](C)(C)C)CCC4)n[nH]c3C2(C)C)c1 [IV-379, N-(2,5-Dimethylphenyl)-6,6-dimethyl-3-[1-(trimethylsilyl)cyclobutanecarboxamido]-4,6-dihydropyrrolo[3,4-c]pyrazole-5(1H)-carboxamide]
CDK7
  Ki: ≤ 0.05 µM
CDK2
  Ki: ≥ 1 µM
PLK1
  Ki: ≥ 5 µM

## CCc1cccc(C)c1NC(=O)N1Cc2c(NC(=O)C3([Si](C)(C)C)CCC3)n[nH]c2C1(C)C [IV-389, N-(2-Ethyl-6-methylphenyl)-6,6-dimethyl-3-[1-(trimethylsilyl)cyclobutanecarboxamido]-4,6-dihydropyrrolo[3,4-c]pyrazole-5 (1H)-carboxamide]
CDK7
  Ki: ≤ 0.05 µM
CDK2
  Ki: ≥ 1 µM
PLK1
  Ki: ≥ 5 µM

## CC1(C)c2[nH]nc(NC(=O)C3([Si](C)(C)C)CCC3)c2CN1C(=O)Nc1c(F)ccc(F)c1F [IV-597, 6,6-Dimethyl-N-(2,3,6-trifluorophenyl)-3-[1-(trimethylsilyl)cyclobutanecarboxamido]-4,6-dihydropyrrolo[3,4-c]pyrazole-5(1H)-carboxamide]
CDK7
  Ki: ≤ 0.05 µM
CDK2
  Ki: ≥ 1 µM
PLK1
  Ki: ≥ 5 µM

## Cc1ccc(C)c(NC(=O)N2Cc3c(NC(=O)C4([Si](C)(C)C)CCC4)n[nH]c3C2(C)C)c1F [IV-669, N-(2-Fluoro-3,6-dimethylphenyl)-6,6-dimethyl-3-[1-(trimethylsilyl)cyclobutanecarboxamido]-4,6-dihydropyrrolo[3,4-c]pyrazole-5(1H)-carboxamide]
CDK7
  Ki: ≤ 0.05 µM
CDK2
  Ki: ≥ 1 µM
PLK1
  Ki: ≥ 5 µM

## CC1(C)c2[nH]nc(NC(=O)C3([Si](C)(C)C)CCC3)c2CN1C(=O)Nc1c(F)ccc2ccoc12 [IV-1049, N-(6-Fluorobenzofuran-7-yl)-6,6-dimethyl-3-[1-(trimethylsilyl)cyclobutanecarboxamido]-4,6-dihydropyrrolo[3,4-c]pyrazole-5 (1H)-carboxamide]
CDK7
  Ki: ≤ 0.05 µM
CDK2
  Ki: ≥ 1 µM
PLK1
  Ki: ≥ 5 µM

## CC1(C)c2[nH]nc(NC(=O)C3([Si](C)(C)C)CCC3)c2CN1C(=O)Nc1c(F)ccc2cc(Cl)oc12 [IV-1063, N-(2-Chloro-6-fluorobenzofuran-7-yl)-6,6-dimethyl-3-[1-(trimethylsilyl)cyclobutanecarboxamido]-4,6-dihydropyrrolo[3,4-c]pyrazole-5(1H)-carboxamide]
CDK7
  Ki: ≤ 0.05 µM
CDK2
  Ki: ≥ 1 µM
PLK1
  Ki: ≥ 5 µM
